In patent publication US20210094899A1, “ACRYLIC ACID ANALOGS” (Recurium IP Holdings, LLC, priority 2017, published 2021):
Each block holds one molecule with its values, some of them ahead of it.

What was measured:
[1] = system: MCF7 cells; assay: Breast cancer cell proliferation assay (MCF-7), Cell Titer-Glo; assay type: cell-based; conditions: Homo sapiens, 120 h, 5 days of compound exposure
Protocol: Breast Cancer Cell Proliferation Assay (MCF-7)
MCF7 cells were expanded and maintained in DMEM (Hyclone SH30272.01, Phenol red free) with NEAA (Gibco11140-050), Na-pyruvate (Gibco 11360-070) and Re-stripped Charcoal stripped FBS (Gemini 100-119)). The cells were adjusted to a concentration of 3,000 cells per mL and incubated (37° C., 5% CO2). The following day a 10 point, serial dilution of compounds was added to the cells at a final concentration ranging from 10 μM to 0.000005 μM for test compounds (17β-estradiol was used as a control). Additional cells were plated in 30 wells to serve as the day 1 (pretreatment) comparison. After 5 days of compound exposure, Cell Titer-Glo reagent was added to the cells and the relative luminescence units (RLUs) of each well was determined Cell Titer-Glo was also added to 32 μL of medium without cells to obtain a background value. The plates were allowed to incubate at room temperature for 10 minutes to stabilize luminescent signal and the luminescence signal was recorded with EnSpire. The relative increase in cell number of each sample is determined as follows: (RLU sample-RLU background/RLU estrogen only treated cells-RLU background)×100=[…].

[2] = Pharmacokinetic determination in rats; assay type: in vivo, female SD rats; conditions: rat
Protocol: (§1) Pharmacokinetic Determination
(§2) Grouping female CD mice weighing 20-30 g or female SD rats weighing 200-300 g randomly to two groups; one group was administered with test compound at a dose of 3.0 mg/kg by intravenous injection, the other group was administered with test compound at a dose of 10.0 mg/kg orally. The formulation for IV groups were DMSO/PEG400/150 mM glycine (pH 9) (5/10/85) and the formulation for PO groups were PEG400/PVP/Tween 80/0.5% CMC in water (9/0.5/0.5/90). After administering, blood samples of intravenous injection group were collected at time points of predose, 0.0833, 0.25, 0.5, 1, 2, 4, 8, 12 and 24 h; blood samples of oral group were collected at time points of predose, 0.25, 0.5, 1, 2, 4, 8, 12, and 24 h. Standard curve was plotted based on concentrations of the samples in a suitable range, the concentrations of test compounds in plasma samples were determined by using LC-MS/MS. Pharmacokinetic parameters were calculated according to drug concentration-time curve using a noncompartmental method by WinNonLin (Phoenix™, version 6.1) or other similar software.

[3] = target: T1, ERα (ESR1 protein) (Homo sapiens, UniProt P03372); assay: ERα EC50 determination (Western blot band density, MCF-7 cells); assay type: cell-based; conditions: 18-24 hours, ERα degradation
T1 construct: After incubating cells with the indicated compounds for 18-24 hours, cell lysates were prepared; endogenous in cells; host or cells: MCF-7
T1 sequence (P03372 1-595): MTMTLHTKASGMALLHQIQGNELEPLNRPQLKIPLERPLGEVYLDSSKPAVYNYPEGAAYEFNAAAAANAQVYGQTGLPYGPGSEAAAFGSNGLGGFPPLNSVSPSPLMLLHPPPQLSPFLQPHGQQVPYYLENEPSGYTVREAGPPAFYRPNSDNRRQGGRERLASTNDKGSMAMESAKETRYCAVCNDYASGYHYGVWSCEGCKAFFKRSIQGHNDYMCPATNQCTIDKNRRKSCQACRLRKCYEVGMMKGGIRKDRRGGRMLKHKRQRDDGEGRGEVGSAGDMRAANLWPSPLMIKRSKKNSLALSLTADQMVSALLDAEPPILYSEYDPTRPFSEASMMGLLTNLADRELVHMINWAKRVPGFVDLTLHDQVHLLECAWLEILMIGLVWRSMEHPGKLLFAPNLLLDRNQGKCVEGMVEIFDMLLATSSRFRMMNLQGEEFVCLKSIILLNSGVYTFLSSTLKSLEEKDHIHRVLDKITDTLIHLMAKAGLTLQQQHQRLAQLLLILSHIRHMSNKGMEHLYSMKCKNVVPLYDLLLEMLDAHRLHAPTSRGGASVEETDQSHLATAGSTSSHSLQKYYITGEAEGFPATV
From the text: A DMSO control was included to enable a determination of the relative efficacy of test compounds. […] The protein concentration was quantified using BCA kit.

[4] = target: T2, ESR1 protein (estrogen receptor alpha) (Homo sapiens, UniProt P03372); assay: ER degradation determination by Western blot in MCF-7 cells; assay type: cell-based; conditions: 10 μM, 18-24 hours
T2 construct: After incubating cells with the indicated compounds for 18-24 hours, cell lysates were prepared; endogenous in cells; host or cells: MCF-7
T2 sequence (P03372 1-595): T1 sequence (P03372 1-595)
Protocol: ER Degradation Determination by Western Blot
MCF-7 cells were plated at 0.3 million cells/mL (3 mL/well) in 6-well plates in experiment media and incubated at 37° C., 5% CO2 for 48 hours. A 10× solution of compounds were made in DMSO and added the solution to the cells to achieve a final concentration of 10 μM. A DMSO control was included to enable a determination of the relative efficacy of test compounds. […] After incubating cells with the indicated compounds for 18-24 hours, cell lysates were prepared (2× Cell lysis buffer: 100 mM Tris, pH 8, 300 mM NaCl, 2% NP40, 1% Na deoxycholate, 0.04% SDS and 2 mM EDTA) and mixed thoroughly and incubated on ice. The protein concentration was quantified using BCA kit. […] The gel was then transferred onto a nitrocellulose membrane. […] GAPDH protein was used as an internal control.

[5] = Pharmacokinetic determination in mice; assay type: in vivo, female CD mice; conditions: mouse
Protocol: as §1, §2

[6] = target: T3, estrogen receptor (Homo sapiens, UniProt P03372); conditions: 500 mg monthly dose; cited from earlier work
T3 sequence (P03372 1-595): T1 sequence (P03372 1-595)

[7] = female, SD, plasma, IV, 3.0 mg/kg
[8] = female, SD, plasma, PO, 10.0 mg/kg
[9] = female, CD, plasma, IV, 3.0 mg/kg
[10] = female, CD, plasma, PO, 10.0 mg/kg

- IC50 [1]: ≤ 25 nM
- AUC(0-inf) [2, 7]: 6.3 µM·h
- clearance [2, 7]: 19 mL/min/kg
- half-life [2, 7]: 234 min
- Vd ([2]; female, SD, plasma, IV, 3.0 mg/kg, read-out: Vdss): 2.9 L/kg
- AUC(0-inf) [2, 8]: 11.1 µM·h
- Cmax [2, 8]: 5.7 µM
- Tmax [2, 8]: 30 min
- half-life [2, 8]: 480 min
- F ([2]; PO, 10.0 mg/kg): 53%
- EC50 [3]: < 25 nM
- ERα % degradation [4]: B (ERα % degradation < 80%)
- AUC(0-inf) [5, 9]: 2.4 µM·h
- clearance [5, 9]: 49.6 mL/min/kg
- half-life [5, 9]: 234 min
- Vd ([5]; female, CD, plasma, IV, 3.0 mg/kg, read-out: Vdss): 6 L/kg
- AUC(0-inf) [5, 10]: 7 µM·h
- Cmax [5, 10]: 2500 nM
- Tmax [5, 10]: 15 min
- half-life [5, 10]: 204 min
- F ([5]; PO, 10.0 mg/kg): 88%
Compound: CC/C(=C(\c1ccc(O)cc1)c1ccc(/C=C/C(=O)O)cc1)c1ccc(F)cc1Cl [Example 1, (E)-3-(4-((E)-2-(2-chloro-4-fluorophenyl)-1-(4-hydroxyphenyl)but-1-en-1-yl)phenyl)acrylic acid]

- IC50 [1]: ≤ 25 nM
- ERα % degradation [4]: A (ERα % degradation ≥ 80%)
Compound: C[C@@H]1Cc2c([nH]c3ccccc23)[C@@H](c2c(F)cc(/C=C/C(=O)O)cc2F)N1CC(C)(C)F [AZD9496]

- IC50 [1]: ≤ 25 nM
Compound: CC/C(=C(/c1ccc(/C=C/C(=O)O)cc1)c1ccc2[nH]ncc2c1)c1ccc(F)cc1Cl [ARN810]

- IC50 [1]: ≤ 25 nM
- ERα % degradation [4]: A (ERα % degradation ≥ 80%)
Compound: C[C@]12CC[C@@H]3c4ccc(O)cc4C[C@@H](CCCCCCCCC[S+]([O-])CCCC(F)(F)C(F)(F)F)[C@H]3[C@@H]1CC[C@@H]2O (stereo partly drawn) [fulvestrant]
- turnover of the receptor in patient samples [6]: less than 50%
